What was measured:
Format in all cases: in vivo
[1] = test system: SOD in serum and homogenate of pulmonary fibrosis model mouse; test: Effect on SOD in serum and homogenate of pulmonary fibrosis model mouse; conditions: bleomycin pulmonary fibrosis mouse, ig 28 d, dose/kg: prednisone acetate 5 mg, Test group 1 50, 2 25, 3 12.5, picrinine 5.0, vallesamine 3.0, scholaricine 3.5, 19-epi-scholaricine 1.0 mg, x ± SD
Method: (§1) Animal source: 30˜35 g male ICR mouse, from laboratory animal department of Kunming Medical University, License No. SCXK (Dian) 2011-0004.
(§2) Method and route: bleomycin was used to induce mouse pulmonary fibrosis, and after intragastrical administration for 28 d at a dose of 20 mL/kg, the animal was sacrificed at the 29th day.
(§3) Group and dose: Sham group, Model group, Positive control group, prednisone acetate (5 mg/kg) group, Test group 1: picrinine, vallesamine, scholaricine and 19-epischolaricine prepared in Example 1.7 were mixed at different ratios by weight (50 mg/kg), Test group 2: the alkaloid composition (25 mg/kg) prepared in Example 1.5, Test group 3: the alkaloid composition (12.5 mg/kg) prepared in Example 1.6, Picrinine group (5.0 mg/kg), Vallesamine group (3.0 mg/kg), Scholaricine group (3.5 mg/kg), and 19-epischolaricine group (1.0 mg/kg).
(§4) Positive control drug: prednisone acetate tablet, Approval number: H33021207, 5 mg/tablet, produced by Zhejiang Xianju Pharmaceutical Co., Ltd., Batch No. 140146.
(§5) Sample preparation: all the samples were prepared by using 0.5% carboxymethylcellulose sodium (0.5% CMC-Na).
Group and dose: in Test group 1, the ratio of picrinine, vallesamine, scholaricine and 19-epischolaricine by weight was 10:7:7:2, and the other groups and doses thereof were as described in Example 12.
Test index: SOD in serum and homogenate was used as index, and was determined by xanthine oxidase method.

[2] = test system: Col-1 in homogenate of pulmonary fibrosis model mouse; test: Effect on Col-1 in homogenate of pulmonary fibrosis model mouse; conditions: ELISA, bleomycin pulmonary fibrosis mouse, ig 28 d, dose/kg: prednisone acetate 5 mg, Test group 1 50, 2 25, 3 12.5, picrinine 5.0, vallesamine 3.0, scholaricine 3.5, 19-epi-scholaricine 1.0 mg, x ± SD
Method: as §1, §2, §3, §4, §5
Group and dose: in Test group 1, the ratio of picrinine, vallesamine, scholaricine and 19-epischolaricine by weight was 20:17:17:4, and the other groups and doses thereof were as described in Example 12.
Test index: Col-1 in homogenate was used as index, and was determined by enzyme linked immunosorbent assay.

[3] = test system: Hyp in homogenate of pulmonary fibrosis model mouse; test: Effect on Hyp in homogenate of pulmonary fibrosis model mouse; conditions: bleomycin pulmonary fibrosis mouse, ig 28 d, dose/kg: prednisone acetate 5 mg, Test group 1 50, 2 25, 3 12.5, picrinine 5.0, vallesamine 3.0, scholaricine 3.5, 19-epi-scholaricine 1.0 mg, x ± SD
Method: as §1, §2, §3, §4
(§6) Sample preparation: all the samples were prepared by using 0.5% carboxymethylcellulose sodium (0.5% CMC-Na). […]
Test index: Hyp in homogenate was used as index, and was determined by enzyme linked immunosorbent assay.

[4] = test system: KL-6 in serum of pulmonary fibrosis model mouse; test: Effect on KL-6 in serum of pulmonary fibrosis model mouse; conditions: ELISA, bleomycin pulmonary fibrosis mouse, ig 28 d, dose/kg: prednisone acetate 5 mg, Test group 1 50, 2 25, 3 12.5, picrinine 5.0, vallesamine 3.0, scholaricine 3.5, 19-epi-scholaricine 1.0 mg, x ± SD
Method: as §1, §2, §3, §4, §5
Group and dose: in Test group 1, the ratio of picrinine, vallesamine, scholaricine and 19-epischolaricine by weight was 45:38:30:8, and the other groups and doses thereof were as described in Example 12.
Test index: KL-6 in serum was used as index, and was determined by enzyme linked immunosorbent assay.

[5] = test system: LDH in serum of pulmonary fibrosis model mouse; test: Effect on LDH in serum of pulmonary fibrosis model mouse; conditions: bleomycin pulmonary fibrosis mouse, ig 28 d, dose/kg: prednisone acetate 5 mg, Test group 1 50, 2 25, 3 12.5, picrinine 5.0, vallesamine 3.0, scholaricine 3.5, 19-epi-scholaricine 1.0 mg, x ± SD
Method: as §1, §2, §3, §4, §6
Test index: LDH in serum was used as index, and was determined by 2, 4-dinitrophenylhydrazine method.

[6] = test system: MDA in serum and homogenate of pulmonary fibrosis model mouse; test: Effect on MDA in serum and homogenate of pulmonary fibrosis model mouse; conditions: bleomycin pulmonary fibrosis mouse, ig 28 d, dose/kg: prednisone acetate 5 mg, Test group 1 50, 2 25, 3 12.5, picrinine 5.0, vallesamine 3.0, scholaricine 3.5, 19-epi-scholaricine 1.0 mg, x ± SD
Method: as §1, §2, §3, §4, §5
Group and dose: in Test group 1, the ratio of picrinine, vallesamine, scholaricine and 19-epischolaricine by weight was 8:5:5:1, and the other groups and doses thereof were as described in Example 12.
Test index: MDA in serum and homogenate was used as index, and was determined by thiobabituric acid method.

## CC(=O)OCC(=O)[C@@]1(O)CC[C@H]2[C@@H]3CCC4=CC(=O)C=C[C@]4(C)[C@H]3C(=O)C[C@@]21C [prednisone acetate, reference compound]
[1]; homogenate
  SOD homogenate: 60.0 ± 15.9 U/mg prot
[1]; serum
  SOD Serum: 15.5 ± 3.8 U/mg prot
[2]
  Col-1: 6.0 ± 2.1 μg/g prot
[3]
  Hyp: 2.9 ± 0.8 μg/g prot
[4]
  KL-6: 3.00 ± 1.00 U/mg prot
[5]
  LDH: 10.5 ± 3.4 U/g prot
[6]; homogenate
  MDA Homogenate: 19.0 ± 6.6 nmol/mg prot
[6]; serum
  MDA Serum: 0.55 ± 0.17 nmol/mg prot

From patent publication US10603345B2, “Pharmaceutical composition for treating respiratory disease” (Kunming Institute of Botany, The Chinese Academy of Sciences, priority 2015, dated 2020)
